We go through 1 compound from ChEMBL document CHEMBL3638847, “Substituted piperidine compounds and their use as orexin receptor modulators” (2015).

The Ki is the equilibrium dissociation constant of an inhibitor or competing ligand from its target.

Test [1] concerns the target T1, Orexin/Hypocretin receptor type 1 (Homo sapiens, UniProt O43613).
T1 sequence (O43613 whole entry): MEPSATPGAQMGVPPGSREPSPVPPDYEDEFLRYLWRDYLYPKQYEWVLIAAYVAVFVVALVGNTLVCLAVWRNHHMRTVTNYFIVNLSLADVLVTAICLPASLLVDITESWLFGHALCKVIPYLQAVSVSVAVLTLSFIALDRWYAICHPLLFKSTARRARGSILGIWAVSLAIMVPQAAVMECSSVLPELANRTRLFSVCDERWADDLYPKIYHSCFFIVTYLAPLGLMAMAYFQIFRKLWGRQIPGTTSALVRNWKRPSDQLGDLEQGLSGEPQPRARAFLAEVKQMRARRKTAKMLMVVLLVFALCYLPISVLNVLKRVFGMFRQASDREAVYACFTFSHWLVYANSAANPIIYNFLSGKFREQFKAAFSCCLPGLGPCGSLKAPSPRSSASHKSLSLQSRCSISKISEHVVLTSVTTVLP
Description: (§1) Radioligand Binding Assay: Human Embryonic Kidney 293 cells (HEK293) stably expressing rat orexin 1 receptor(Genebank accession number NM_001525) or […] (CHO) stably expressing human orexin 1 receptor (Genebank accession number […]) were grown to confluency in DMEM (Hyclone, cat # SH30022), 10% FBS, IX Pen/Strep, IX sodium pyruvate, 10 mM HEPES, 600 ug/mL G418 and DMEM/F12 (Gibco, Cat #1 1039), 10%FBS, IX Pen/Strep, 600 ug/mL G418 media, respectively on 150 cm2 tissue culture plates, washed with 5 mM EDTA in PBS (HyClone Dulbecco's Phoshpate Buffered Saline IX with Calcium and Magnesium, Cat # SH30264.01, hereafter referred to simply as PBS) and scraped into 50 ml tubes. After centrifugation (2K xG, 5 min at 4 C), the supernatant was aspirated and the pellets frozen and stored at -80C. Cells were resuspended in PBS in the presence of 1 tablet of protease inhibitor cocktail (Roche, Cat. #1 1836145001) per 50 mL. Each cell pellet from a 15 cm plate was resuspended in 10 mL. The class given is cell-based.

Test [2] has as its target T2, Orexin/Hypocretin receptor type 1 (Rattus norvegicus, UniProt P56718).
T2 sequence (P56718 whole entry): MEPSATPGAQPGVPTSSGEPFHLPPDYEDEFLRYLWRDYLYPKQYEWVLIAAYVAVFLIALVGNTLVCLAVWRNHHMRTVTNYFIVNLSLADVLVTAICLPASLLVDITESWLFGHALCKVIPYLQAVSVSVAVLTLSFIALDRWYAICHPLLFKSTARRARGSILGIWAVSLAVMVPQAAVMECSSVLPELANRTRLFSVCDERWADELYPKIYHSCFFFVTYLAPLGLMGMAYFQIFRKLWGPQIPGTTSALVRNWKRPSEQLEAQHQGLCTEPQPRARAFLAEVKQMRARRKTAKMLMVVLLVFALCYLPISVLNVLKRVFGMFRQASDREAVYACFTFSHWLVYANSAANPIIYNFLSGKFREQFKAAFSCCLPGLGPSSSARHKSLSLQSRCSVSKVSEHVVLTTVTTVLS
The description is as §1. The class given is cell-based.

The target of the next test is T3, Orexin receptor type 2 (Homo sapiens, UniProt O43614).
T3 sequence (O43614 whole entry): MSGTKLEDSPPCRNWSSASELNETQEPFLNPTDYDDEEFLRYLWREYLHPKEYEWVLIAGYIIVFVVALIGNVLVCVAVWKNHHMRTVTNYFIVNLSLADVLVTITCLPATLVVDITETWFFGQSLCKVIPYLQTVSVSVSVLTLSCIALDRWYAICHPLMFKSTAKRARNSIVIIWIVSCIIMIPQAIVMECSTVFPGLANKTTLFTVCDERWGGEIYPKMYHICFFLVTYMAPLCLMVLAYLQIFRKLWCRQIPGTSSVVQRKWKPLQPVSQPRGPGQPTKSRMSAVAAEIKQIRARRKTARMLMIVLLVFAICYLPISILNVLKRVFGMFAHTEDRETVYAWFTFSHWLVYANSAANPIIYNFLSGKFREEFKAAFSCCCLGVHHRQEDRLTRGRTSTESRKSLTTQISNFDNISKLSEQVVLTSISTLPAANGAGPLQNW
Description: Radioligand Binding Assay: HEK293 stably expressing human orexin 2 receptor (Genebank accession numberNM_001526) were grown to confluency in DMEM (Hyclone, cat # SH30022) , 10%FBS, IX Pen/Strep, IX NaPyruvate, 10 mM HEPES, 600 ug/ml G418 media on 150 cm2 tissue culture plates, washed with 5 mM EDTA in PBS (HyClone Dulbecco's Phoshpate Buffered Saline IX with Calcium and Magnesium, Cat # SH30264.01, hereafter referred to simply as PBS) and scraped into 50 ml tubes. After centrifugation (2K xG, 5 min at 4°C), the supernatant was aspirated and the pellets frozen and stored at -80°C. Cells were resuspended in PBS in the presence of 1 tablet of protease inhibitor cocktail (Roche, Cat. #11836145001) per 50 mL. Each cell pellet from a 15 cm plate was resuspended in 10 mL, stored on ice, and homogenized for 45 sec just prior to addition to the reactions. Competition binding experiments in 96 well polypropylene plates were performed using [3H]-EMPA (Moraveck Corporation, specific activity = 29.6 Ci/mmol).

Turning to `Cc1cnc(C(=O)N2CCC[C@@H](Nc3ccc(C(F)(F)F)cn3)[C@@H]2C)c(-c2ncccn2)c1`, the results for the Ki (in test [1]; in test [2]; on Orexin receptor type 2) were 26 nM, 19 nM and 91 nM, respectively.
